Test results reported in US9125429B2, “High-potency sweetener composition with fatty acid and compositions sweetened therewith” (THE COCA-COLA COMPANY, priority 2005, dated 2015).

System: panel of experts in the sensory evaluation of foods and beverages
Test: Sensory evaluation of sweetness linger and taste characteristics by expert panel
Type: in vivo
Parameters: key: 0=no sweetness linger; 1=very slight sweetness linger; 2=slight sweetness linger; 3=moderate sweetness linger; 4=moderately high sweetness linger; 5=high sweetness linger

rebaudioside A was tested, and the sweetness linger (Example Set G: 400 ppm REBA in citric acid/potassium citrate composition equivalent to diet lemon-lime beverage (sugar control 8 g in 100 ml citrate buffer), scale 0-5, sweetness 3-4 min after water rinse) was 5 and the sweetness linger (Example Set H: REBA (500 ppm; H41 360 ppm) in carbon-treated water, phosphoric acid (75%) to pH 2.4-2.5 (sugar control 10 g in 100 ml), scale 0-5) was 5.
